The values below come from patent US10793520B2, “Sulfonylaminobenzamide compound and pest control agent” (Nippon Soda Co., Ltd., priority 2016, dated 2020).

This data set has as its system Mythimna separata. Put plainly: Efficacy test against Mythimna separata (treated artificial feed). The settings on record: in vivo. On the procedure: Five parts of the compound of the present invention, 93.6 parts of dimethylformamide and 1.4 parts of a polyoxyethylene alkyl aryl ether were mixed together and dissolved to obtain an emulsion (1) containing 5% of the active constituent.
The mortality rate was calculated using the following equation. Mortality rate (%)=(number of dead pests/number of test pests)×100
First, 0.8 g of an artificial feed (Insecta LFS, manufactured by Nosan Corporation) and 1 μl of the emulsion (I) were mixed thoroughly, and 0.2 g of the resulting mixture was placed in each of the treatment areas of a plastic test container (volume: 1.4 ml) to complete preparation of a test feed.
Two second-instar larvae of Mythimna separata were inoculated into each treatment area, and the test container was sealed with a plastic lid. The sealed container was placed in a temperature-controlled room at 25° C., and the mortality rate and the amount of feed consumed were determined on the fifth day. The test was repeated. Further, a test performed under the same conditions, but with the exception of excluding the compound of the present invention from the emulsion (1), was used as a control.
Consider `O=C(Nc1ncc(C(C(F)(F)F)C(F)(F)F)s1)c1ccc(C(F)(F)F)cc1NS(=O)(=O)C(F)(F)F` [a-19], for which the “mortality rate against Mythimna separata, or amount of feed consumed relative to control” value is listed as 100%, or the amount of feed consumed was 10% or less. On to `N#Cc1ccc(NC(=O)c2ccc(C(F)(F)F)cc2NS(=O)(=O)C(F)(F)F)c(F)c1` [a-53], for which the “mortality rate against Mythimna separata, or amount of feed consumed relative to control” value is recorded as 100%, or the amount of feed consumed was 10% or less. Consider `O=C(Nc1cc(C(F)(F)F)cc(C(F)(F)F)c1)c1ccc(Cl)cc1NS(=O)(=O)C(F)(F)F` [a-1], for which the “mortality rate against Mythimna separata, or amount of feed consumed relative to control” value is reported as 100%, or the amount of feed consumed was 10% or less.

For `O=C(Nc1ccc(OC(F)(F)F)cc1)c1ccc(C(F)(F)F)cc1NS(=O)(=O)C(F)F` [a-33], the “mortality rate against Mythimna separata, or amount of feed consumed relative to control” value is on record as 100%, or the amount of feed consumed was 10% or less. For the molecule `CCC(NC(=O)c1ccc(C(F)(F)F)cc1NS(=O)(=O)C(F)(F)F)c1ccc(C(F)(F)F)cn1` (stereo not shown) [b-6], the “mortality rate against Mythimna separata, or amount of feed consumed relative to control” value was 100%, or the amount of feed consumed was 10% or less. Regarding `COC(=O)c1cc(C(F)(F)F)ccc1NC(=O)c1cc(F)c(F)cc1NS(=O)(=O)C(F)(F)F` [a-111], the “mortality rate against Mythimna separata, or amount of feed consumed relative to control” value is 100%, or the amount of feed consumed was 10% or less. Consider `COC(=O)c1cc(F)c(F)cc1NC(=O)c1cc(F)c(F)cc1NS(=O)(=O)C(F)(F)F` [a-87], for which the “mortality rate against Mythimna separata, or amount of feed consumed relative to control” value is 100%, or the amount of feed consumed was 10% or less.

For the molecule `COC(=O)c1cc(F)ccc1NC(=O)c1ccc(C(F)(F)F)cc1NS(=O)(=O)C(F)(F)F` [a-57], the “mortality rate against Mythimna separata, or amount of feed consumed relative to control” value is recorded as 100%, or the amount of feed consumed was 10% or less.

On to `CC(=O)c1ccc(C(F)(F)F)cc1NC(=O)c1ccc(C(F)(F)F)cc1NS(=O)(=O)C(F)(F)F` [a-134], for which the “mortality rate against Mythimna separata, or amount of feed consumed relative to control” value is given as 100%, or the amount of feed consumed was 10% or less. The figure for `O=C(Nc1ccc(C(F)(F)F)cn1)c1ccc(C(F)(F)F)cc1NS(=O)(=O)C(F)(F)F` [a-8] is 100%, or the amount of feed consumed was 10% or less; for `O=C(Nc1ccc(C(F)(F)F)cc1-n1cccn1)c1ccc(C(F)(F)F)cc1NS(=O)(=O)C(F)(F)F` [a-135] it is 100%, or the amount of feed consumed was 10% or less.

As to `COC(=O)c1cc(OC(F)(F)F)ccc1NC(=O)c1ccc(C(F)(F)F)cc1NS(=O)(=O)C(F)(F)F` [a-109], the “mortality rate against Mythimna separata, or amount of feed consumed relative to control” value is 100%, or the amount of feed consumed was 10% or less. As to `O=C(Nc1ccc(F)c(C(F)(F)F)c1)c1ccc(Cl)cc1NS(=O)(=O)C(F)(F)C(F)(F)C(F)(F)C(F)(F)F` [a-141], the “mortality rate against Mythimna separata, or amount of feed consumed relative to control” value is reported as 100%, or the amount of feed consumed was 10% or less. In the case of `COC(=O)c1cc(F)c(F)cc1NC(=O)c1cc(F)c(C(F)(F)F)cc1NS(=O)(=O)C(F)(F)F` [a-98], the “mortality rate against Mythimna separata, or amount of feed consumed relative to control” value was 100%, or the amount of feed consumed was 10% or less. The figure for `COC(=O)c1cc(I)c(Cl)cc1NC(=O)c1ccc(C(F)(F)F)cc1NS(=O)(=O)C(F)(F)F` [a-79] is 100%, or the amount of feed consumed was 10% or less; for `O=C(Nc1ccc(C(F)(F)F)cc1)c1ccc(C(F)(F)F)cc1NS(=O)(=O)C(F)(F)F` [a-4] it is 100%, or the amount of feed consumed was 10% or less. Consider `O=C(Nc1cccc(OC(F)(F)F)c1)c1ccc(C(F)(F)F)cc1NS(=O)(=O)C(F)(F)F` [a-12], for which the “mortality rate against Mythimna separata, or amount of feed consumed relative to control” value was 100%, or the amount of feed consumed was 10% or less. The figure for `COC(=O)c1ccc(C(F)(F)F)cc1NC(=O)c1ccc(C(F)(F)F)cc1NS(=O)(=O)C(F)(F)F` [a-63] is 100%, or the amount of feed consumed was 10% or less. The result for `O=C(Nc1ccc(C(F)(F)F)cc1)c1cc(Br)c(Cl)cc1NS(=O)(=O)C(F)(F)F` [a-124] reads 100%, or the amount of feed consumed was 10% or less; that for `O=C(Nc1ncc(C(F)(F)F)cc1Cl)c1ccc(C(F)(F)F)cc1NS(=O)(=O)C(F)(F)F` [a-23], 100%, or the amount of feed consumed was 10% or less; that for `O=C(Nc1cc(F)c(F)cc1F)c1ccc(C(F)(F)F)cc1NS(=O)(=O)C(F)(F)F` [a-116], 100%, or the amount of feed consumed was 10% or less. In the case of `CCOc1cc(C(F)(F)F)ccc1NC(=O)c1ccc(C(F)(F)F)cc1NS(=O)(=O)C(F)(F)F` [a-59], the “mortality rate against Mythimna separata, or amount of feed consumed relative to control” value was 100%, or the amount of feed consumed was 10% or less. The result for `COC(=O)c1ccc(Cl)cc1NC(=O)c1ccc(C(F)(F)F)cc1NS(=O)(=O)C(F)(F)F` [a-92] reads 100%, or the amount of feed consumed was 10% or less; that for `Cc1ccc(NC(=O)c2ccc(C(F)(F)F)cc2NS(=O)(=O)C(F)(F)F)cc1` [a-13], 100%, or the amount of feed consumed was 10% or less; that for `O=C(Nc1cc(C(F)(F)F)ccc1-c1nnco1)c1ccc(C(F)(F)F)cc1NS(=O)(=O)C(F)(F)F` [a-139], 100%, or the amount of feed consumed was 10% or less. As to `O=C(Nc1ccc(F)c(F)c1)c1ccc(C(F)(F)F)cc1NS(=O)(=O)C(F)(F)F` [a-138], the “mortality rate against Mythimna separata, or amount of feed consumed relative to control” value is given as 100%, or the amount of feed consumed was 10% or less.

For the molecule `O=C(Nc1ccc(OC(F)(F)F)cc1)c1ccc(Br)cc1NS(=O)(=O)C(F)(F)F` [a-29], the “mortality rate against Mythimna separata, or amount of feed consumed relative to control” value is 100%, or the amount of feed consumed was 10% or less. For the molecule `O=C(Nc1ccc(Cl)c(C(F)(F)F)c1)c1ccc(C(F)(F)F)cc1NS(=O)(=O)C(F)(F)F` [a-70], the “mortality rate against Mythimna separata, or amount of feed consumed relative to control” value was 100%, or the amount of feed consumed was 10% or less.

Turning to `O=C(Nc1ccc(C(F)(F)F)c(F)c1)c1ccc(-c2ccc(C(F)(F)F)nc2)cc1NS(=O)(=O)C(F)(F)F` [a-119], the “mortality rate against Mythimna separata, or amount of feed consumed relative to control” value was 100%, or the amount of feed consumed was 10% or less. Take `O=C(Nc1ccc(F)c(C(F)(F)F)c1)c1ccc(-c2ccc(C(F)(F)F)nc2)cc1NS(=O)(=O)C(F)(F)F` [a-120]: the “mortality rate against Mythimna separata, or amount of feed consumed relative to control” value is on record as 100%, or the amount of feed consumed was 10% or less. The result for `O=C(Nc1ccc(F)c(C(F)(F)F)c1)c1cc(F)c(F)cc1NS(=O)(=O)C(F)(F)F` [a-16] reads 100%, or the amount of feed consumed was 10% or less; that for `O=C(Nc1ccc(C(F)(F)F)cc1F)c1ccc(C(F)(F)F)cc1NS(=O)(=O)C(F)(F)F` [a-54], 100%, or the amount of feed consumed was 10% or less; that for `O=C(Nc1ccc(OC(F)(F)F)cc1)c1ccc(OC(F)(F)F)cc1NS(=O)(=O)C(F)(F)F` [a-24], 100%, or the amount of feed consumed was 10% or less. Consider `O=C(Nc1cc(C(F)(F)F)cc(C(F)(F)F)c1)c1ccc(C(F)(F)F)cc1NS(=O)(=O)C(F)(F)F` [a-3], for which the “mortality rate against Mythimna separata, or amount of feed consumed relative to control” value was 100%, or the amount of feed consumed was 10% or less. Consider `N#Cc1ccc(NC(=O)c2ccc(C#N)cc2NS(=O)(=O)C(F)(F)F)cc1` [a-40], for which the “mortality rate against Mythimna separata, or amount of feed consumed relative to control” value is listed as 100%, or the amount of feed consumed was 10% or less. `COC(=O)c1cc(F)c(F)cc1NC(=O)c1cc(Br)c(Cl)cc1NS(=O)(=O)C(F)(F)F` [a-88]: the “mortality rate against Mythimna separata, or amount of feed consumed relative to control” value is reported as 100%, or the amount of feed consumed was 10% or less. As to `COC(=O)c1cc(Br)ccc1NC(=O)c1ccc(C(F)(F)F)cc1NS(=O)(=O)C(F)(F)F` [a-49], the “mortality rate against Mythimna separata, or amount of feed consumed relative to control” value was 100%, or the amount of feed consumed was 10% or less.

With `COC(=O)c1ccc(C(F)(F)F)cc1NC(=O)c1cc(Cl)c(F)cc1NS(=O)(=O)C(F)(F)F` [a-137], the “mortality rate against Mythimna separata, or amount of feed consumed relative to control” value is 100%, or the amount of feed consumed was 10% or less. As to `COC(=O)c1cc(Br)c(Cl)cc1NC(=O)c1ccc(C(F)(F)F)cc1NS(=O)(=O)C(F)(F)F` [a-83], the “mortality rate against Mythimna separata, or amount of feed consumed relative to control” value is reported as 100%, or the amount of feed consumed was 10% or less.

Consider `O=C(Nc1ccc(C(F)(F)F)c(Cl)c1)c1ccc(C(F)(F)F)cc1NS(=O)(=O)C(F)(F)F` [a-10], for which the “mortality rate against Mythimna separata, or amount of feed consumed relative to control” value is reported as 100%, or the amount of feed consumed was 10% or less. Consider `COC(=O)c1cc(C(F)(F)F)c(Cl)cc1NC(=O)c1ccc(C(F)(F)F)cc1NS(=O)(=O)C(F)(F)F` [a-82], for which the “mortality rate against Mythimna separata, or amount of feed consumed relative to control” value is given as 100%, or the amount of feed consumed was 10% or less. Consider `O=C(Nc1ccc(Br)cc1Cl)c1ccc(C(F)(F)F)cc1NS(=O)(=O)C(F)(F)F` [a-68], for which the “mortality rate against Mythimna separata, or amount of feed consumed relative to control” value is given as 100%, or the amount of feed consumed was 10% or less. On to `COC(=O)c1cc(C(F)(F)F)ccc1NC(=O)c1cc(Br)c(Cl)cc1NS(=O)(=O)C(F)(F)F` [a-112], for which the “mortality rate against Mythimna separata, or amount of feed consumed relative to control” value is given as 100%, or the amount of feed consumed was 10% or less.
